The subject of this test is LB1751-EBV cells. The test is described as follows: Chromium release assay: lysis by CTL 447A/5 of peptide-sensitised LB1751-EBV cells. The test is classed as cell-based, human. As to conditions: for Lysis by CTL 447A/5 of peptide-pulsed LB1751-EBV cells pre-treated with anti-HLA-A2 mAb MA2.1: MA2.1 (1/5 dilution of hybridoma supernatant) during 51Cr-labeling, E/T 20, 4 h; for Lysis by CTL 447A/5 of LB1751-EBV cells incubated with peptide: peptide concentration as high as 10 μM. On the procedure:
FIG. 4. […] (A) LB1751-EBV cells pulsed with peptides derived from MAGE-A10. Chiromium-labelled autologous EBV-transformed lymphoblastoid cells LB1751-EBV were pulsed for 30 min with peptides as indicated at various concentrations before addition of CTL 447A/5 at an E/T ratio of 20. Chromium release was measured after 4 h. (B) Enhancement by mAb MA2.1 of lysis of LB1751-EBV cells pulsed with MAGE-A10 peptides. LB1751-EBV cells were pre-treated with or without anti-HLA-A2 antibody MA2.1. The pre-treatment was performed by adding mAb MA2.1 during ^51Cr-labeling. Peptide sensitisation and chromium release assay were carried out as in (A).
FIG. 5. […] LB1751-EBVcells were pre-treated with or without anti-HLA-A2 antibody MA2. 1. Ab treatment and peptide sensitisation of the cells and chromium release assay were carried out as in FIG. 4.
In the amino acid sequence corresponding to the nucleotides 547-825 there are two nonapeptides, […] (codons 183-191 in the ORF) (SEQ. ID. NO. 46) and […] (254-262) (SEQ. ID. NO. 42), which conform to the HLA-A2.1 peptide binding motif, i.e., a nona- or decapeptide with Leu or Met at position 2 and Leu, Val or Ile at its C-terminus (Rammensee, H. G., et al., 1995, Immunogenetics, 41:178-228). These two peptides and their overlapping decapeptides were synthesised on solid phase using F-moc for transient NH2-terminal protection and characterised by mass spectrometry. The peptides were >90% pure, as indicated by analytical HPLC, and used to sensitise autologous lymphoblastoid cell line LB1751-EBV in a chromium release assay as described in (Boon, T., et al., 1980, J. Exp. Med 152:1184-1193) but modified as follows. The target cells were ^51Cr-labeled for 1 h at 37° C. and then washed extensively. 1,000 target cells were then incubated in 96-well microplates in the presence of various concentrations of peptides for 30 min at 37° C. and CTLs were added at an E/T ratio of 20. Chromium release was measured after 4 h at 37° C.
Enhancement of peptide binding to the HLA-A2 molecule was achieved by incubation of target cells during ^51Cr-labeling with a ⅕ dilution of hybridoma culture supernatant of mAb MA2.1 (McMichael, A. J., et al., 1980, Hum. Immunol. 1:121-129; and Bodmer, H., et al., 1989, Nature 342:443-446).
This peptide and its overlapping decapeptide […] (codons 232-241) (SEQ. ID. NO. 45) were synthesised by the technique described above. LB1751-EVB cells incubated with either of the peptides, at a concentration of as high as 10 μM peptide, were not lysed by CTL 447A/5. […] Enhancement of peptide binding to the HLA-A2 molecule was achieved by incubation of target cells during ^51Cr-labeling with a ⅕ dilution of hybridoma culture supernatant of mAb MA2.1 (McMichael, A. J., et al., 1980, Hum. Immunol. 1: 121-129; and Bodmer, H., et al., 1989, Nature 342.443-446).

Setting [1] is: cells pulsed 30 min with peptide at various concentrations, E/T ratio 20, chromium release after 4 h, no mAb MA2.1.

Entries after “also recorded” stand apart in the source; their conditions may differ.

Regarding “CMLLVFGIDV (listed as Homo sapiens) [decapeptide from MAGE-A10 (182-191)]”, the “Lysis by CTL 447A/5 of peptide-pulsed LB1751-EBV cells pre-treated with anti-HLA-A2 mAb MA2.1” value (“Lysis … with anti-HLA-A2 mAb MA2.1” for short) was “failed to confer recognition”. The “Sensitisation of LB1751-EBV cells to lysis by CTL 447A/5” value (“Sensitisation of LB1751-EBV cells” for short) under setting [1] was “failed to confer recognition”.

On to “GLYDGMEHL (listed as Homo sapiens) [nonapeptide encoded by MAGE-A10 (codons 254-262), presented by HLA-A2]”, for which the “Lysis … with anti-HLA-A2 mAb MA2.1” value was “significantly increased sensitivity to lysis”. Further, under setting [1], the “Sensitisation of LB1751-EBV cells” value is “could sensitise LB1751-EBV cells to lysis; also recorded: recognises”.

For the sequence “GLYDGMEHLI (listed as Homo sapiens) [decapeptide encoded by MAGE-A10 (254-263)]”, the “Lysis … with anti-HLA-A2 mAb MA2.1” value is recorded as “significantly increased sensitivity to lysis”. Also, the “Sensitisation of LB1751-EBV cells” value under setting [1] was “less efficiently”.

In the case of “GLYDGREHS (listed as Homo sapiens) [nonapeptide encoded by MAGE-A8 (codons 232-240)]”, the “Lysis … with anti-HLA-A2 mAb MA2.1” value is given as “enhancement of lysis” and the “Lysis by CTL 447A/5 of LB1751-EBV cells incubated with peptide” value is “not lysed”. Besides, the “Sensitisation of LB1751-EBV cells” value (peptide concentration 100 μM) is given as “did sensitise LB1751-EBV cells to lysis”.

Turning to “GLYDGREHSV (listed as Homo sapiens) [decapeptide encoded by MAGE-A8 (codons 232-241)]”, the “Lysis … with anti-HLA-A2 mAb MA2.1” value was “not” and the “Lysis by CTL 447A/5 of LB1751-EBV cells incubated with peptide” value is given as “not lysed”.

With “MLLVFGIDV [nonapeptide from MAGE-A10 (codons 183-191)]”, the “Lysis … with anti-HLA-A2 mAb MA2.1” value is recorded as “failed to confer recognition”. For the same sequence, the “Sensitisation of LB1751-EBV cells” value under setting [1] is recorded as “failed to confer recognition”.

Source of the values: patent US7547439B1, “Tumor rejection antigens” (Ludwig Institute for Cancer Research, priority 1998, dated 2009).
